Experimental data from US7098217B2, “3,7-dihydro-purine-2,6-dione derivatives as CRF receptor ligands” (Bristol-Myers Squibb Company, priority 2001, dated 2006).

Compound	melting point
CCc1nc2c(c(=O)n(C)c(=O)n2-c2ccc(Cl)cc2Cl)n1C(CC)CC [Example 1, 3-(2,4-dichlorophenyl)-8-ethyl-1-methyl-7-(3-pentyl)-3,7-dihydro-1H-purine-2,6-dione]	186 to 187 °C
C=CCC(CC=C)n1c(CC)nc2c1c(=O)n(C)c(=O)n2-c1ccc(Cl)cc1Cl [Example 4, 7-(1-allyl-3-butenyl)-3-(2,4-dichlorophenyl)-8-ethyl-1-methyl-3,7-dihydro-1H-purine-2,6-dione]	145 to 146 °C
CCCC(CCC)n1c(CC)nc2c1c(=O)n(C)c(=O)n2-c1c(OC)ccnc1C [Example 117, 8-ethyl-7-(4-heptyl)-3-(4-methoxy-2-methylpyrid-3-yl)-1-methyl-3,7-dihydro-1H-purine-2,6-dione]	124 to 126 °C
CCC(CC)n1cnc2c1c(=O)n(C)c(=O)n2-c1ccc(Cl)cc1Cl [Example 5, 3-(2,4-dichlorophenyl)-1-methyl-7-(3-pentyl)-3,7-dihydro-1H-purine-2,6-dione]	158 to 159 °C
CCc1nc2c(c(=O)n(C)c(=O)n2-c2ccc(Cl)cc2Cl)n1Cc1ccc(OC)cc1 [Example 7, 3-(2,4-dichlorophenyl)-8-ethyl-7-(4-methoxybenzyl)-1-methyl-3,7-dihydro-1H-purine-2,6-dione]	209 to 210 °C
CCCC(CCC)n1c(CC)nc2c1c(=O)n(C)c(=O)n2-c1c(C)cc(C)cc1C [Example 79, 8-ethyl-7-(4-heptyl)-1-methyl-3-(2,4,6-trimethylphenyl)-3,7-dihydro-1H-purine-2,6-dione]	195 to 195.5 °C
CCCC(CCC)n1c(CC)nc2c1c(=O)n(C)c(=O)n2-c1ccc(Cl)cc1Cl [Example 2, 3-(2,4-dichlorophenyl)-8-ethyl-7-(4-heptyl)-1-methyl-3,7-dihydro-1H-purine-2,6-dione]	185 to 186 °C
